Measurements as given in PubChem BioAssay (NCI).
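Following 48 hours of exposure in 96-well plates, responses at five concentrations were used to interpolate endpoints linearly. TGI marks complete inhibition of growth.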

Assays:
Assay in all cases: NCI tumour cell line growth inhibition, 48 h
CAKI-1 renal = system: CAKI-1 renal
UACC-257 melanoma = system: UACC-257 melanoma
A549 NSCLC = system: A549 NSCLC
MDA-MB-435 = system: MDA-MB-435
HCC-2998 colon = system: HCC-2998 colon
NCI-H460 lung = system: NCI-H460 lung
RXF 393 renal = system: RXF 393 renal
HOP-92 NSCLC = system: HOP-92 NSCLC
IGROV1 ovarian = system: IGROV1 ovarian
NCI-H226 lung = system: NCI-H226 lung
OVCAR-3 ovarian = system: OVCAR-3 ovarian
NCI-H522 lung = system: NCI-H522 lung
LOX IMVI melanoma = system: LOX IMVI melanoma
HCT-116 colon = system: HCT-116 colon
SK-MEL-28 melanoma = system: SK-MEL-28 melanoma
K-562 leukemia = system: K-562 leukemia
UACC-62 melanoma = system: UACC-62 melanoma
T-47D breast = system: T-47D breast
OVCAR-4 ovarian = system: OVCAR-4 ovarian
DU-145 prostate = system: DU-145 prostate
SW-620 colon = system: SW-620 colon
ACHN renal = system: ACHN renal
SK-MEL-5 melanoma = system: SK-MEL-5 melanoma
U251 CNS = system: U251 CNS
HT29 colon = system: HT29 colon
CCRF-CEM leukemia = system: CCRF-CEM leukemia
MDA-N = system: MDA-N
BT-549 breast = system: BT-549 breast
HOP-62 NSCLC = system: HOP-62 NSCLC
SK-MEL-2 melanoma = system: SK-MEL-2 melanoma
EKVX NSCLC = system: EKVX NSCLC
UO-31 renal = system: UO-31 renal
RPMI-8226 leukemia = system: RPMI-8226 leukemia
SNB-19 CNS = system: SNB-19 CNS
MCF7 breast = system: MCF7 breast
HCT-15 colon = system: HCT-15 colon
SN12C renal = system: SN12C renal
HL-60(TB) leukemia = system: HL-60(TB) leukemia
A498 renal = system: A498 renal
SK-OV-3 ovarian = system: SK-OV-3 ovarian
SF-295 CNS = system: SF-295 CNS
MALME-3M melanoma = system: MALME-3M melanoma
M14 melanoma = system: M14 melanoma
KM12 colon = system: KM12 colon
SF-268 CNS = system: SF-268 CNS
COLO 205 colon = system: COLO 205 colon
SR leukemia = system: SR leukemia
SF-539 CNS = system: SF-539 CNS
SNB-75 CNS = system: SNB-75 CNS
PC-3 prostate = system: PC-3 prostate
MDA-MB-231 breast = system: MDA-MB-231 breast
OVCAR-8 ovarian = system: OVCAR-8 ovarian
NCI/ADR-RES ovarian = system: NCI/ADR-RES ovarian
HS 578T breast = system: HS 578T breast
OVCAR-5 ovarian = system: OVCAR-5 ovarian
NCI-H23 lung = system: NCI-H23 lung
TK-10 renal = system: TK-10 renal
MOLT-4 leukemia = system: MOLT-4 leukemia
786-0 renal = system: 786-0 renal

In the case of `NC(=O)NC(=O)c1cccc(NC(=O)CI)c1`, the TGI (CAKI-1 renal) is reported as 0.662 µM, the TGI (UACC-257 melanoma) is reported as 0.438 µM and the TGI (A549 NSCLC) is reported as 12.4 µM. It also gave a TGI (MDA-MB-435) of 0.202 µM, a TGI (HCC-2998 colon) of 0.609 µM and a TGI (NCI-H460 lung) of 0.286 µM. It also gave a TGI (RXF 393 renal) of 2.13 µM, a TGI (HOP-92 NSCLC) of 1.58 µM and a TGI (IGROV1 ovarian) of 0.796 µM. The TGI (NCI-H226 lung) was 0.201 µM, the TGI (OVCAR-3 ovarian) was under 0.01 µM and the TGI (NCI-H522 lung) was under 0.01 µM. For the same compound, the TGI (LOX IMVI melanoma) was 0.395 µM, the TGI (HCT-116 colon) was 0.106 µM and the TGI (SK-MEL-28 melanoma) was 7.49 µM. For the same compound, the TGI (K-562 leukemia) was 1.45 µM, the TGI (UACC-62 melanoma) was 0.692 µM and the TGI (T-47D breast) was 4.3 µM. For the same compound, the TGI (OVCAR-4 ovarian) was 5.08 µM, the TGI (DU-145 prostate) was 0.103 µM and the TGI (SW-620 colon) was 2.03 µM. It also gave a TGI (ACHN renal) of 1.58 µM, a TGI (SK-MEL-5 melanoma) of 0.0382 µM and a TGI (U251 CNS) of 0.136 µM. It also gave a TGI (HT29 colon) of 0.0607 µM, a TGI (CCRF-CEM leukemia) of 0.145 µM and a TGI (MDA-N) of 0.0253 µM. For the same compound, the TGI (BT-549 breast) was 2.44 µM, the TGI (HOP-62 NSCLC) was 1.16 µM and the TGI (SK-MEL-2 melanoma) was 0.837 µM. For the same compound, the TGI (EKVX NSCLC) was 10.4 µM, the TGI (UO-31 renal) was 1.44 µM and the TGI (RPMI-8226 leukemia) was 0.312 µM. For the same compound, the TGI (SNB-19 CNS) was 14.7 µM, the TGI (MCF7 breast) was 1.56 µM and the TGI (HCT-15 colon) was 2.06 µM. For the same compound, the TGI (SN12C renal) was 0.326 µM, the TGI (HL-60(TB) leukemia) was under 0.01 µM and the TGI (A498 renal) was 0.805 µM. The TGI (SK-OV-3 ovarian) was 1.06 µM, the TGI (SF-295 CNS) was 2.68 µM and the TGI (MALME-3M melanoma) was 0.899 µM. For the same compound, the TGI (M14 melanoma) was 0.408 µM, the TGI (KM12 colon) was 18.5 µM and the TGI (SF-268 CNS) was 0.0717 µM. The TGI (COLO 205 colon) was under 0.01 µM, the TGI (SR leukemia) was 0.416 µM and the TGI (SF-539 CNS) was 0.0701 µM. The TGI (SNB-75 CNS) was 1.75 µM, the TGI (PC-3 prostate) was 1.35 µM and the TGI (MDA-MB-231 breast) was 0.866 µM. For the same compound, the TGI (OVCAR-8 ovarian) was 0.188 µM, the TGI (NCI/ADR-RES ovarian) was 5.32 µM and the TGI (HS 578T breast) was 0.146 µM. It also gave a TGI (OVCAR-5 ovarian) of 2.12 µM and a TGI (NCI-H23 lung) of 2.04 µM.

In the case of `CNN1C(=O)c2c(N)c(C#N)c(-c3ccccc3)c(-c3ccccc3)c2C1=O`, the TGI (CAKI-1 renal) is reported as over 100 µM, the TGI (UACC-257 melanoma) is reported as over 100 µM and the TGI (A549 NSCLC) is reported as over 100 µM. For the same compound, the TGI (MDA-MB-435) was over 100 µM, the TGI (HCC-2998 colon) was over 100 µM and the TGI (NCI-H460 lung) was over 100 µM. For the same compound, the TGI (RXF 393 renal) was over 100 µM, the TGI (HOP-92 NSCLC) was over 100 µM and the TGI (IGROV1 ovarian) was over 100 µM. The TGI (NCI-H226 lung) was over 100 µM, the TGI (OVCAR-3 ovarian) was over 100 µM and the TGI (NCI-H522 lung) was over 100 µM. For the same compound, the TGI (LOX IMVI melanoma) was over 100 µM, the TGI (HCT-116 colon) was over 100 µM and the TGI (SK-MEL-28 melanoma) was over 100 µM. The TGI (K-562 leukemia) was over 100 µM, the TGI (UACC-62 melanoma) was over 100 µM and the TGI (T-47D breast) was over 100 µM. The TGI (OVCAR-4 ovarian) was over 100 µM, the TGI (DU-145 prostate) was over 100 µM and the TGI (SW-620 colon) was over 100 µM. For the same compound, the TGI (ACHN renal) was over 100 µM, the TGI (SK-MEL-5 melanoma) was over 100 µM and the TGI (TK-10 renal) was over 100 µM. It also gave a TGI (U251 CNS) of over 100 µM, a TGI (CCRF-CEM leukemia) of over 100 µM and a TGI (MDA-N) of over 100 µM. For the same compound, the TGI (BT-549 breast) was over 100 µM, the TGI (MOLT-4 leukemia) was over 100 µM and the TGI (SK-MEL-2 melanoma) was over 100 µM. For the same compound, the TGI (EKVX NSCLC) was over 100 µM, the TGI (UO-31 renal) was over 100 µM and the TGI (RPMI-8226 leukemia) was over 100 µM. It also gave a TGI (SNB-19 CNS) of over 100 µM, a TGI (MCF7 breast) of over 100 µM and a TGI (HCT-15 colon) of over 100 µM. For the same compound, the TGI (SN12C renal) was over 100 µM, the TGI (HL-60(TB) leukemia) was over 100 µM and the TGI (A498 renal) was over 100 µM. The TGI (SF-295 CNS) was over 100 µM, the TGI (MALME-3M melanoma) was over 100 µM and the TGI (M14 melanoma) was over 100 µM. The TGI (KM12 colon) was over 100 µM, the TGI (SF-268 CNS) was over 100 µM and the TGI (COLO 205 colon) was over 100 µM. The TGI (SR leukemia) was over 100 µM, the TGI (SF-539 CNS) was over 100 µM and the TGI (SNB-75 CNS) was over 100 µM. For the same compound, the TGI (PC-3 prostate) was over 100 µM, the TGI (MDA-MB-231 breast) was over 100 µM and the TGI (OVCAR-8 ovarian) was over 100 µM. It also gave a TGI (786-0 renal) of over 100 µM, a TGI (NCI/ADR-RES ovarian) of over 100 µM and a TGI (HS 578T breast) of over 100 µM. For the same compound, the TGI (OVCAR-5 ovarian) was over 100 µM.
